Laboratory results as given in patent US10286092B2, “Detecting a therapeutic cell” (UCL Business PLC, priority 2015, dated 2019).
Numbering of substitutions follows the chain as printed. Names and notes keep the numbering of the source. Values joined by “and” are separate entries in the source; they are usually repeats but may differ in a detail not shown here. Identical values can stand only once. “Also recorded” adds a separate entry of the source.

Tests used:
hDAT [1] = molecular target: T1, hDAT (Homo sapiens, UniProt Q01959); assay: In vitro radiosubstrate binding assay, hDAT expressing T-cells
T1 construct: expressed in transfected cells; host or cells: SupT1 human T-cell line, retrovirally transduced with SFG.hDAT.I.CD34 (co-transduced with FLuc for in vivo work)
Method: (§1) Reporter protein binding capabilities was assessed in a method previously described. Briefly, 1×10^6 all hDAT expressing T-cells and the non-transduced control cells were incubated at 37° C. with 7.4 kBq ^123I-FP-CIT (GE, Healthcare) for 30 mins. At each time point, cells were rapidly washed twice with 500 μL ice-cold PBS and the supernatant collected. Cell pellets were re-suspended in 1 mL PBS. ^123I-FP-CIT binding in cells and medium was measured using a gamma counter (WIZARD^2, PerkinElmer, UK). To determine the non-specific binding of the ^123I-FP-CIT in hDAT (+) cells, transduced cells and non-transduced cells were incubated with 50 μM of β-CIT-FP (ABX) for 5 min. ^123I-FP-CIT cells were subsequently prepared for gamma counting as mentioned above. All experiments were performed in triplicates and repeated ≥twice. All results are given as mean±standard deviation of the mean (SD). The data was analysed using one way analysis of variance (ANOVA) followed by the Tukey's HSD test with the IBM SPSS software.

[2] = test system: control non-transduced (NT) SupT1 cells; assay: In vitro radiosubstrate binding assay, non-transduced control cells; parameters: species or system human; details: 7.4 kBq, 37° C., 30 min
Method: as §1

hDAT [3] = molecular target: T1, hDAT; assay: SPECT/CT imaging of hDAT-positive brain xenografts in NSG mice; assay type: in vivo; details: for specific to non-specific binding ratio hDAT: cerebellum: NSG mice n=4
Method: All animal procedures were carried out in accordance with the UK Animals (Scientific Procedures) 1986 Act and institutional ethics regulation. NSG mice were bred in-house and kept according to institutional guidelines. Male mice 6-10 weeks old were injected with 2 mg/kg body weight of 5% carprofen (Norbrook) and anaesthetised with 3-5% Isoflurane (ABBOTT, UK) in an induction chamber. Animals were placed in a stereotactic frame (David Kopf Instruments) with an anaesthesia head holder to deliver 3% isoflurane. A sagittal incision over the parieto-occipital bone using a sterile scalpel (Swann Morton Ltd) was made and a blunt ended Hamilton (75N, 26s/2″/2′5 ul) syringe with SupT1/hDAT.I.CD34 was placed 1.5 mm lateral and 1 mm anterior of bregma. The needle was lowered 4 mm in the brain through a burr hole and retracted 1 mm to create a small reservoir where the cells (1×10^4 in a 3 μl volume) were injected.
(§2) Animals were administered with 1.5 mmol/kg of the thyroid blocking agent potassium perchlorate (Sigma Aldrich, USA) intraperitoneally one hour prior to imaging. Animals were imaged with a NanoSPECT/CT small animal in vivo scanner (Mediso, Hungary) consisting of a rotating double headed camera (company, country). 1.2 mm pinhole mouse apertures were used. Imaging was performed under isoflurane (1.5-2%) and the body temperature was maintained at 37° C. using a heated animal bed (Minerve, France). For the kinetic study, animals were administered with an average of 17.25±1.22 MBq of ^123I-FP-CIT i.v. and 15 min. brain scans were acquired day 25 post tumour inoculation at 15 min. 2 h, 4 h, 6 h and 8 h. Images were reconstructed using HiSPECT software (InviCRO, USA) and image processing analysis was performed (VivoQuant Software; InviCRO, USA).
Time activity profiles were generated evaluate the hDAT reporter system in vivo. Regions of interest (ROIs) for the hDAT expressing xenografts, cerebellum (chose background region) and striatum were drawn on the SPECT/MR/CT coregistered data. The percentage in injected dose per mm^3 (% ID/mm^3) was calculated by; injected dose (MBq)/counts in the whole body (MBq)/volume of the ROI (mm^3) to determine the peak uptake time and the optimum imaging window. A method based on the striatal binding ratio was utilised to determine specific-to-nondisplaceable binding ratios previously described as indicative of the binding potential at the time of binding equilibrium^6,7. The binding ratios were calculated by determining the mean counts per pixel in the specific region (hDAT expressing xenograft for the hDAT: cerebellum and hDAT: striatum ratios) divided by the mean counts per pixel in the nonspecific region.

DAT = molecular target: T2, DAT (Mus musculus, UniProt Q61327); assay: SPECT/CT imaging of striatum (endogenous DAT) in NSG mice; assay type: in vivo; details: NSG mice n=4
T2 construct: the striatum (region with high endogenous expression of DAT); from tissue; host or cells: striatum of living NSG mice (in vivo SPECT)
Method: as §2
Time activity profiles were generated evaluate the hDAT reporter system in vivo. […] The percentage in injected dose per mm^3 (% ID/mm^3) was calculated by; injected dose (MBq)/counts in the whole body (MBq)/volume of the ROI (mm^3) to determine the peak uptake time and the optimum imaging window. […] The binding ratios were calculated by determining the mean counts per pixel in the specific region (hDAT expressing xenograft for the hDAT: cerebellum and hDAT: striatum ratios) divided by the mean counts per pixel in the nonspecific region.

[4] = test system: non-transduced SupT1 cells; assay: SPECT imaging of control animals injected with non-transduced SupT1 cells; assay type: in vivo, mouse; details: intracranially injected non-transduced SupT1 cells
Method: as §2

hDAT [5] = molecular target: T1, hDAT; assay: PET/CT imaging of hDAT positive cells in mouse brain; assay type: in vivo; details: i.v.
Method: Animals were administered with 1.5 mmol/kg of the thyroid blocking agent potassium perchlorate (Sigma Aldrich, USA) intraperitoneally one hour prior to imaging. Animals were imaged with a PET/CT small animal in vivo scanner (Mediso, Hungary). Imaging was performed under isoflurane (1.5-2%) and the body temperature was maintained at 37° C. using a heated animal bed (Minerve, France). Four weeks post tumour inoculation, animals were administered with 5 MBq of ^18F-FP-CIT i.v. and brain scans were acquired 30 min post injection. A high-resolution CT was acquired immediately following […] imaging. Images were reconstructed using HiSPECT software (InviCRO, USA) and image processing analysis was performed (VivoQuant Software; InviCRO, USA).

[6] = Binding of 123I-FP-CIT by hDAT and hDAT variant proteins from different constructs; details: for binding of [123I]-FP-CIT by hDAT variant: compared to wild-type hDAT, FIG. 7
Method: as §1

[7] = after 4 h post i.v. injection (constant)

T1 sequence (Q01959 whole entry): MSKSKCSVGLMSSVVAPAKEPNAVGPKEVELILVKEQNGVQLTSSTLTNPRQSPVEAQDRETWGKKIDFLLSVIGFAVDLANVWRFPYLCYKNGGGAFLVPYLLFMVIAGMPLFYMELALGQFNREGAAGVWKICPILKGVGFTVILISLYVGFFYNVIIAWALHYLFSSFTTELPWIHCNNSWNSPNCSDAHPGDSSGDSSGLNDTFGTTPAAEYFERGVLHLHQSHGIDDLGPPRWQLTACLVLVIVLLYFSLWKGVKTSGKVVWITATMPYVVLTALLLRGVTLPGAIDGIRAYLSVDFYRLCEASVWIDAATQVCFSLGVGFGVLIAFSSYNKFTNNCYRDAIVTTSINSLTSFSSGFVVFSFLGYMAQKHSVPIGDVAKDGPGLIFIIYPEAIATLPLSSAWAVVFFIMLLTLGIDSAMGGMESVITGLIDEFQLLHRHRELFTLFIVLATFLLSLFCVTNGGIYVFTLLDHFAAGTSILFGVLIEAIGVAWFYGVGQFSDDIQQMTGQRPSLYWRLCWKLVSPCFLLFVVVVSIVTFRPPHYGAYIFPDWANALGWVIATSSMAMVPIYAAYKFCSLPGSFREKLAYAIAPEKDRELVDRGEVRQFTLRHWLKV
T2 sequence (Q61327 whole entry): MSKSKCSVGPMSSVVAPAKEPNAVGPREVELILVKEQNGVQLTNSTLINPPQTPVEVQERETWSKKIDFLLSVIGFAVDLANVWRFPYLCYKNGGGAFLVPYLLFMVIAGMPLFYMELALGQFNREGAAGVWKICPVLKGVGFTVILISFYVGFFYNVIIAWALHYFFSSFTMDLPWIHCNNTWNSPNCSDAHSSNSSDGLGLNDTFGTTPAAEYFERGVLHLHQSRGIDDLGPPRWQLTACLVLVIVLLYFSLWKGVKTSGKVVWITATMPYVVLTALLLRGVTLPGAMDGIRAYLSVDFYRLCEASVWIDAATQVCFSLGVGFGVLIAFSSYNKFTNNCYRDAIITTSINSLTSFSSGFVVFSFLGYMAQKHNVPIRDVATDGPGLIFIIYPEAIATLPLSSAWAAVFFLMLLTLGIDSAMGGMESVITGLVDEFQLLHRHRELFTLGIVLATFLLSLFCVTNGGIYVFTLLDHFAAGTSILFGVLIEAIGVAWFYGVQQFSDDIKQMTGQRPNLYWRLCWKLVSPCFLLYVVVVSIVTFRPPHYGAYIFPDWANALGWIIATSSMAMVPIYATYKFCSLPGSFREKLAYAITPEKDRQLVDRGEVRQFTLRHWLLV

## COC(=O)[C@H]1[C@@H](c2ccc(I)cc2)C[C@@H]2CC[C@H]1N2CCCF [[I]-FP-CIT]
hDAT [1]; SupT1/SFG.hDAT.I.CD34 cells co-incubated with cold compound, 50 μM
  % [123I]-FP-CIT binding in the presence of [I]-FP-CIT: 1.10±0.22%
hDAT [1]; SupT1/SFG.hDAT.I.CD34 cells, cold compound 50 μM, p<0.001
  fold reduction of [123I]-FP-CIT binding in the presence of [I]-FP-CIT: 32 fold
hDAT [1]; hDAT positive T-cells, co-incubation with cold compound 50 μM
  inhibition of [123I]-FP-CIT binding by cold compound (in words): complete binding inhibition; also recorded: completely abolished

## COC(=O)[C@H]1[C@@H](c2ccc(I)cc2)C[C@@H]2CC[C@H]1N2CCCF [[^123I]-FP-CIT, [I-^123] N-ω-fluoropropyl-2β-carbomethoxy-3β-(4-iodophenyl) nortropane]
hDAT [1]; SupT1/SFG.hDAT.I.CD34 cells, 7.4 kBq, 37° C., 30 min
  percentage [123I]-FP-CIT binding: 35.10±5.24%
hDAT [1]; hDAT cells vs non-transduced SupT1 cells
  fold greater % [123I]-FP-CIT binding in SupT1/SFG.hDAT.I.CD34 compared to control cells: 25 fold and 27 fold
[2]
  percentage [123I]-FP-CIT binding: 1.41±0.40%
hDAT [3]; 2 h post i.v. injection (peak)
  specific to non-specific binding ratio hDAT: cerebellum: 5.73±1.75
hDAT [3]; SupT1/SFG.hDAT.I.CD34 xenografts, SPECT
  optimum imaging time post injection: 2 h
hDAT [3]; [7]
  specific to non-specific binding ratio hDAT: cerebellum: 4.09±0.38
hDAT [3]; co-registered SPECT-MR-CT, 2 h post i.v. injection
  co-localisation of SPECT signal with MR contrast at xenograft site: good co-localisation; also recorded: good correlation
hDAT [3]; dynamic SPECT at 15 min, 2 h, 4 h, 6 h
  time post radiotracer injection at which hDAT-positive xenografts were visualised by SPECT: as early as 15 min and up to 6 hr
DAT; 2 h post i.v. injection (peak)
  specific to non-specific binding ratio striatum: cerebellum: 6.56±2.40
DAT; [7]
  specific to non-specific binding ratio striatum: cerebellum: 4.08±0.60
[4]
  SPECT signal in control animals: non-detectable

## COC(=O)[C@H]1[C@@H](c2ccc(I)cc2)C[C@@H]2CC[C@H]1N2CCC[18F] [^18F-FP-CIT, [^18F] fluoropropyl-carbomethoxy-iodophenyl-nortropane]
hDAT [5]
  detection of hDAT positive cells by PET/CT: could also be detected

## RQR8-hDAT: hDAT tagged with RQR8
[6]
  binding of [123I]-FP-CIT by hDAT variant: increased levels

B1: dhDATopt: truncated hDAT, probably lacking the 49 N-terminal amino acids compared to wild-type hDAT (protein)
chain: MSKSKCSVGLMSSVVAPAKEPNAVGPKEVELILVKEQNGVQLTSSTLTNPRQSPVEAQDRETWGKKIDFLLSVIGFAVDLANVWRFPYLCYKNGGGAFLVPYLLFMVIAGMPLFYMELALGQFNREGAAGVWKICPILKGVGFTVILISLYVGFFYNVIIAWALHYLFSSFTTELPWIHCNNSWNSPNCSDAHPGDSSGDSSGLNDTFGTTPAAEYFERGVLHLHQSHGIDDLGPPRWQLTACLVLVIVLLYFSLWKGVKTSGKVVWITATMPYVVLTALLLRGVTLPGAIDGIRAYLSVDFYRLCEASVWIDAATQVCFSLGVGFGVLIAFSSYNKFTNNCYRDAIVTTSINSLTSFSSGFVVFSFLGYMAQKHSVPIGDVAKDGPGLIFIIYPEAIATLPLSSAWAVVFFIMLLTLGIDSAMGGMESVITGLIDEFQLLHRHRELFTLFIVLATFLLSLFCVTNGGIYVFTLLDHFAAGTSILFGVLIEAIGVAWFYGVGQFSDDIQQMTGQRPSLYWRLCWKLVSPCFLLFVVVVSIVTFRPPHYGAYIFPDWANALGWVIATSSMAMVPIYAAYKFCSLPGSFREKLAYAIAPEKDRE
modifications: dhDATopt_d protein sequence
notes: truncated hDAT, probably lacking the 49 N-terminal amino acids compared to wild-type hDAT
[6]
  binding of [123I]-FP-CIT by hDAT variant: able to bind

B2: hDAToptD313N: hDAT including a D313N mutation (protein, UniProt Q01959 1-620, looked up, variant D313N)
Sodium-dependent dopamine …: MSKSKCSVGLMSSVVAPAKEPNAVGPKEVELILVKEQNGVQLTSSTLTNPRQSPVEAQDRETWGKKIDFLLSVIGFAVDLANVWRFPYLCYKNGGGAFLVPYLLFMVIAGMPLFYMELALGQFNREGAAGVWKICPILKGVGFTVILISLYVGFFYNVIIAWALHYLFSSFTTELPWIHCNNSWNSPNCSDAHPGDSSGDSSGLNDTFGTTPAAEYFERGVLHLHQSHGIDDLGPPRWQLTACLVLVIVLLYFSLWKGVKTSGKVVWITATMPYVVLTALLLRGVTLPGAIDGIRAYLSVDFYRLCEASVWINAATQVCFSLGVGFGVLIAFSSYNKFTNNCYRDAIVTTSINSLTSFSSGFVVFSFLGYMAQKHSVPIGDVAKDGPGLIFIIYPEAIATLPLSSAWAVVFFIMLLTLGIDSAMGGMESVITGLIDEFQLLHRHRELFTLFIVLATFLLSLFCVTNGGIYVFTLLDHFAAGTSILFGVLIEAIGVAWFYGVGQFSDDIQQMTGQRPSLYWRLCWKLVSPCFLLFVVVVSIVTFRPPHYGAYIFPDWANALGWVIATSSMAMVPIYAAYKFCSLPGSFREKLAYAIAPEKDRELVDRGEVRQFTLRHWLKV
[6]
  binding of [123I]-FP-CIT by hDAT variant: increased levels

B3: hDAT: human dopamine transporter expressed from tricistronic construct RQR8.2A.aCD19.2A.hDAT_opt (protein)
chain: B2 Sodium-dependent dopamine … with N313D
modifications: hDAT protein sequence
[6]; hDAT expressed from CD19 CAR-hDAT tricistronic construct, FIG. 8C
  binding of [123I]-FP-CIT by hDAT co-expressed with CD19 CAR: able to bind
